Source: ChEMBL document CHEMBL4828764, “Lead Optimization and Structure-Activity Relationship Studies on Myeloid Ecotropic Viral Integration Site 1 Inhibitor” (J Med Chem, 2021)
Activity calls are given as the source filed them. The rule behind the calls is not given here.

Key:
Format in all cases: cell-based
[1] = target: T1, Homeobox protein Meis1 (Homo sapiens) (UniProt O00470); test: Inhibition of MEIS1 (unknown origin) expressed in HEK293T cells co-expressing MEIS-Luc-pGL2 assessed as luciferase activity at 10 uM incubated for 48 hrs by luciferase reporter assay related to protein content; set-up: scale not given: the % may be the effect or the level left
T1 sequence (whole entry): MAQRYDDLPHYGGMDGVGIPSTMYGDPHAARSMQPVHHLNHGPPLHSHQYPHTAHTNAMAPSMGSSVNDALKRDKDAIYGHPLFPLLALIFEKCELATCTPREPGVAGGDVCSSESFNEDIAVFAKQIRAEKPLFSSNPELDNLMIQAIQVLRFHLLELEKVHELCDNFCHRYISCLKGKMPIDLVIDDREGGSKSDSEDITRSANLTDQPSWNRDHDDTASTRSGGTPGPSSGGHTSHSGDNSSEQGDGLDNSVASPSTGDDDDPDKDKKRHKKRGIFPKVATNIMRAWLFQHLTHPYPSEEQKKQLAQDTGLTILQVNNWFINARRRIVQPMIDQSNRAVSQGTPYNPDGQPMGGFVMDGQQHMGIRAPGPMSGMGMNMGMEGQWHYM

[2] = target: T1, Homeobox protein Meis1 (Homo sapiens); test: Inhibition of MEIS1 (unknown origin) expressed in HEK293T cells co-expressing MEIS-Luc-pGL2 assessed as luciferase activity at 10 uM incubated for 48 hrs by luciferase reporter assay related to […] control; set-up: scale not given: the % may be the effect or the level left
[3] = Cytotoxicity against HDF assessed as cell viability at 10 uM incubated for 72 hrs by MTS assay; conditions: human, HDF (NHDF) cells, read-out: Activity
[4] = target: T1, Homeobox protein Meis1 (Homo sapiens); test: Inhibition of MEIS1 (unknown origin) expressed in HEK293T cells co-expressing MEIS-Luc-pGL2 assessed as downregulation of Meis1 gene expression measuring mRNA level at 10 uM incubated for 2 days by RT-qPCR analysis; set-up: scale not given: the % may be the effect or the level left; conditions: time 2.0 day
[5] = target: T1, Homeobox protein Meis1 (Homo sapiens); test: Inhibition of MEIS1 (unknown origin) expressed in HEK293T cells co-expressing MEIS-Luc-pGL2 assessed as downregulation of Hif-Ialpha gene expression measuring mRNA level at 10 uM incubated for 2 days by RT-qPCR analysis; conditions: time 2.0 day
[6] = target: T1, Homeobox protein Meis1 (Homo sapiens); test: Inhibition of MEIS1 (unknown origin) expressed in HEK293T cells co-expressing MEIS-Luc-pGL2 assessed as downregulation of p21 gene expression by measuring mRNA level at 10 uM incubated for 2 days by RT-qPCR analysis; set-up: scale not given: the % may be the effect or the level left; conditions: time 2.0 day

SMILES	Activity [1] [%]	Activity [2] [%]	Activity [4] [%]	Activity [5]	Activity [6] [%]	viability at 72 h, 10 µM [3] [%]
COc1ccc(NC(=O)c2ccc(OCC(=O)NCc3ccccc3Cl)cc2)cc1OC	80	82	–	–	–	–
COc1ccc(CNC(=O)COc2ccc(C(=O)Nc3cccc(Cl)c3)cc2)cc1	5	5	5.9	Active	12.7	90
CCc1cccc(NC(=O)c2ccc(OCC(=O)NCc3ccc(Cl)cc3)cc2)c1	69	49	–	–	–	–
O=C(COc1ccc(C(=O)Nc2ccc(F)cc2)cc1)NCc1ccccc1Cl	51	50	–	–	–	–
COc1ccc(CNC(=O)COc2ccc(C(=O)Nc3ccccc3)cc2)cc1	43	43	–	–	–	–
COc1ccc(CNC(=O)COc2ccc(C(=O)Nc3cc(C(F)(F)F)ccc3F)cc2)cc1	28	30	6.6	Active	5.2	105
CCc1ccccc1NC(=O)c1ccc(OCC(=O)NCc2ccccc2Cl)cc1	63	66	–	–	–	–
COc1ccc(CNC(=O)COc2ccc(C(=O)Nc3ccccc3F)cc2)cc1	66	70	–	–	–	–
O=C(COc1ccc(C(=O)Nc2cccc(Cl)c2)cc1)NCc1ccccc1Cl	88	96	–	–	–	–
O=C(COc1ccc(C(=O)Nc2ccc(Oc3ccc(Br)cc3)cc2)cc1)NCc1ccccc1Cl	82	82	–	–	–	–
CCc1ccccc1NC(=O)c1ccc(OCC(=O)NCc2ccc(Cl)cc2)cc1	51	36	19.2	Active	139	31.3
Cc1cccc(C)c1NC(=O)c1ccc(OCC(=O)NCc2ccccc2Cl)cc1	53	58	–	–	–	–
COc1ccc(CNC(=O)COc2ccc(C(=O)Nc3ccc(OC)c(OC)c3)cc2)cc1	63	70	–	–	–	–
O=C(COc1ccc(C(=O)Nc2cccc(Cl)c2)cc1)NCc1ccc(Cl)cc1	51	32	4.5	Active	19.7	86.4
CCc1ccccc1NC(=O)c1ccc(OCC(=O)NCc2ccc(OC)cc2)cc1	19	20	8.3	Active	8.5	78
COc1ccc(CNC(=O)COc2ccc(C(=O)Nc3cccc(C(F)(F)F)c3)cc2)cc1	1	1	15.1	Active	49.5	76
O=C(COc1ccc(C(=O)Nc2cccc(C(F)(F)F)c2)cc1)NCc1ccc(Cl)cc1	46	44	–	–	–	–
COc1ccc(CNC(=O)COc2ccc(C(=O)Nc3ccc(F)cc3)cc2)cc1	25	31	7.5	Active	20.3	86.2
CCc1cccc(NC(=O)c2ccc(OCC(=O)NCc3ccccc3Cl)cc2)c1	42	41	–	–	–	–
O=C(COc1ccc(C(=O)Nc2cccc(C(F)(F)F)c2)cc1)NCc1ccccc1Cl	64	57	–	–	–	–
COc1ccc(CNC(=O)COc2ccc(C(=O)Nc3ccc(Oc4ccc(Br)cc4)cc3)cc2)cc1	37	45	–	–	–	–
O=C(COc1ccc(C(=O)Nc2ccccc2)cc1)NCc1ccc(Cl)cc1	83	75	–	–	–	–
O=C(COc1ccc(C(=O)Nc2ccc(Oc3ccc(Br)cc3)cc2)cc1)NCc1ccc(Cl)cc1	72	42	–	–	–	–
O=C(COc1ccc(C(=O)Nc2ccccc2F)cc1)NCc1ccccc1Cl	64	62	–	–	–	–
COc1ccc(NC(=O)c2ccc(OCC(=O)NCc3ccc(Cl)cc3)cc2)cc1OC	56	45	–	–	–	–
O=C(COc1ccc(C(=O)Nc2ccccc2)cc1)NCc1ccccc1Cl	54	48	–	–	–	–
CCc1cccc(NC(=O)c2ccc(OCC(=O)NCc3ccc(OC)cc3)cc2)c1	51	51	–	–	–	–
O=C(COc1ccc(C(=O)Nc2ccc(F)cc2)cc1)NCc1ccc(Cl)cc1	69	43	–	–	–	–

The next lines start with results.

Activity [1] [%]	Activity [2] [%]	Activity [4] [%]	Activity [5]	Activity [6] [%]	SMILES	viability at 72 h, 10 µM [3] [%]
57	47	–	–	–	Cc1cccc(NC(=O)c2ccc(OCC(=O)NCc3ccc(Cl)c(Cl)c3)cc2)c1C	–
38	34	35.9	Active	47.4	Cc1cccc(NC(=O)c2ccc(OCC(=O)NCc3ccc(Cl)cc3)cc2)c1C	73.5
48	161	–	–	–	Cc1cccc(NC(=O)c2ccc(OCC(=O)NCc3cccc(Cl)c3Cl)cc2)c1C	–
58	62	–	–	–	COc1ccc(CNC(=O)COc2ccc(C(=O)Nc3c(C)cccc3C)cc2)cc1	–
50.6	48	14.3	Active	15.7	COc1ccc(CNC(=O)COc2ccc(C(=O)Nc3cccc(C)c3C)cc2)cc1	86.3
48	51	–	–	–	Cc1ccc(CNC(=O)COc2ccc(C(=O)Nc3cccc(C)c3C)cc2)cc1	–
57	106	–	–	–	Cc1cccc(NC(=O)c2ccc(OCC(=O)NCc3cccc(C(F)(F)F)c3)cc2)c1C	–
65	40	–	–	–	O=C(COc1ccc(C(=O)Nc2ccccc2F)cc1)NCc1ccc(Cl)cc1	–
40	36	24.3	Active	25.6	Cc1cccc(NC(=O)c2ccc(OCC(=O)NCc3ccc(F)cc3)cc2)c1C	90.4
26	81	–	–	–	Cc1cccc(NC(=O)c2ccc(OCC(=O)NCc3ccc(C(F)(F)F)cc3)cc2)c1C	–
43	34	13.7	Active	25.3	Cc1cccc(NC(=O)c2ccc(OCC(=O)NCc3ccccc3Cl)cc2)c1C	64.8
52	54	–	–	–	Cc1cccc(NC(=O)c2ccc(OCC(=O)NCc3ccc4c(c3)OCO4)cc2)c1C	–
52	61	–	–	–	Cc1cccc(NC(=O)c2ccc(OCC(=O)NCc3ccc(Cl)cc3Cl)cc2)c1C	–
66	69	12	–	17.8	Cc1cccc(NC(=O)c2ccc(OCC(=O)NCc3ccccc3)cc2)c1C	–
50	17	–	–	–	COc1ccc(CNC(=O)COc2ccc(C(=O)Nc3cccc(C)c3C)cc2)c(OC)c1	–
23	144	–	–	–	Cc1cccc(NC(=O)c2ccc(OCC(=O)NCc3ccc([N+](=O)[O-])cc3)cc2)c1C	–
49	35	9.5	Active	21.7	COc1ccc(CNC(=O)COc2ccc(C(=O)Nc3cccc(C)c3C)cc2)cc1OC	83.9
77	55	–	–	–	Cc1cccc(C)c1NC(=O)c1ccc(OCC(=O)NCc2ccc(Cl)cc2)cc1	–
